Measured values: patent US11219602B2 (VECTURA LIMITED, priority 2017, dated 2022)
Several values for one entry are separate records, joined by “and”; a condition that tells them apart may be missing. Equal values may be shown once.

Assay: Particle size analysis (wet analysis), Malvern Mastersizer 3000
Assay type: physicochemical
Conditions: starting material before micronisation
Method: The pump speed was set to 3000 rpm. […] The dispersed particles were added to the dispersion unit to reach an obscuration of 5-15%. […] Six replicates were performed per measurement.

[1] = listed as unmicronised glycopyrrolate

D10 [1] [μm]	D50 [1] [μm]	D90 [1] [μm]	Compound	D10	D50	D90
1.09	2.90	10.4	C[N+]1(C)CCC(OC(=O)C(O)(c2ccccc2)C2CCCC2)C1 (stereo not drawn) [Unmicronised glycopyrrolate, glycopyrrolate]	2.89 μm	16.0 μm	49.0 μm
			magnesium stearate	2.8 μm and 2.06 μm	8.8 μm and 6.57 μm	27.4 μm and 19.9 μm
